Data from article PMC11724841 (Communications Biology, 2025).

Experiments:
iso-3 HiPIP = molecular target: T1, iso-3 HiPIP (Halorhodospira halophila, UniProt A1WXH6); assay: cryo-EM structure, […] Å; assay type: binding; conditions: native complex; functional N-terminal domain
T1 sequence (A1WXH6 26-145): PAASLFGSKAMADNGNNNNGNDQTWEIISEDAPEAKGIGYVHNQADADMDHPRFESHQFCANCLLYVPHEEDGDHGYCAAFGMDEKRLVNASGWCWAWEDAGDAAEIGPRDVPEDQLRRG

[1] = molecular target: Hlr. halophila RC (in LH1–RC–HiPIP complex) (Halorhodospira halophila, UniProt A1WXF6+A1WXF7); assay: cryo-EM structure, […] Å; assay type: binding; conditions: native complex
[2] = molecular target: Halorhodospira halophila LH1–RC core complex (Halorhodospira halophila strain BN9622); assay: cryo-EM structure

Chain of Hlr. halophila RC (in LH1–RC–HiPIP complex) (A1WXF7 1-276): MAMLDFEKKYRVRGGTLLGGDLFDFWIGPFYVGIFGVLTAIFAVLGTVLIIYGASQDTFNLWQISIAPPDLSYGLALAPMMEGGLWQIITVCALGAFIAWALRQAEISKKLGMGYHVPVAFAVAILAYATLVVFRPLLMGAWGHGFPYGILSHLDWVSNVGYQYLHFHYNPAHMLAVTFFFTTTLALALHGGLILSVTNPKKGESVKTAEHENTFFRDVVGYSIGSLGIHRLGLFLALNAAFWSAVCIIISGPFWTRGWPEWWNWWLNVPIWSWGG
Chain of Hlr. halophila RC (in LH1–RC–HiPIP complex) (A1WXF6 1-323): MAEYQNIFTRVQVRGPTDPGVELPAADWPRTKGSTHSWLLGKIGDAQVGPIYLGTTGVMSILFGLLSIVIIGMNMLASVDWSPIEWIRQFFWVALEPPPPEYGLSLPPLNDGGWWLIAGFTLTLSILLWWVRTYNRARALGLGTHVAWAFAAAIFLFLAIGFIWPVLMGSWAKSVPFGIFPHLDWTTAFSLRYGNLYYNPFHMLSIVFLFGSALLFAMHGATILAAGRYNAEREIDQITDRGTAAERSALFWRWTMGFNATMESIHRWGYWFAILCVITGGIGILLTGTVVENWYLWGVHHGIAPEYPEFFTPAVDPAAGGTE
Chain of Hlr. halophila RC (in LH1–RC–HiPIP complex) (A1WXI3 1-278 partner): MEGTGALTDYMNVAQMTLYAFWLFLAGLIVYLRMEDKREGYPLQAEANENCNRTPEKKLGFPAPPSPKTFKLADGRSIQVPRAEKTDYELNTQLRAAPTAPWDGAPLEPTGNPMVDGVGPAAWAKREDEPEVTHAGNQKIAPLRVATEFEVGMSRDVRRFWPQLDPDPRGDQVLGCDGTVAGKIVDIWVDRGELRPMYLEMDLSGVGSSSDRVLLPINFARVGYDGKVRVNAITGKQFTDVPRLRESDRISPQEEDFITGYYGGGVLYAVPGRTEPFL
Chain of Hlr. halophila RC (in LH1–RC–HiPIP complex) (A1WXF5 26-362 partner): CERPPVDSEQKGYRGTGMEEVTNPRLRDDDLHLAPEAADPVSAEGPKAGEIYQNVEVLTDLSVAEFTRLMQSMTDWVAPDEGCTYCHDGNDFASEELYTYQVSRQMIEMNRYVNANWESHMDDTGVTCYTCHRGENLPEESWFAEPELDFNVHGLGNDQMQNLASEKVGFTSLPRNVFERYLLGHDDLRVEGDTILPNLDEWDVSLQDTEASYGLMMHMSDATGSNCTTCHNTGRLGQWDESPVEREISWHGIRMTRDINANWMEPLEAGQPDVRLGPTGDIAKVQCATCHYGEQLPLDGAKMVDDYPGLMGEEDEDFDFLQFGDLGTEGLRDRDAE

In the case of `[S]12[Fe]3[S]4[Fe]1[S]1[Fe]2[S]3[Fe]41` [4Fe–4S, 4Fe–4S cluster], the “cryo-EM structure, 2.44 Å” value (iso-3 HiPIP) is reported as “N-terminal functional portion containing the 4Fe–4S cluster”.
With `CC[C@H]1c2cc3[nH]c4c(c3C)C(=O)[C@H](C(=O)OC)c4c3nc(cc4[nH]c(cc(n2)[C@@H]1C)c(C(C)=O)c4C)[C@@H](C)[C@@H]3CCC(=O)OC/C=C(\C)CCC[C@H](C)CCC[C@H](C)CCCC(C)C` [BPhe] the “cryo-EM structure, 2.44 Å” value ([1]; RC pigment, printed only as BPhe) was “BPhe, orange sticks”.
`CC(C)=CCC/C(C)=C/CC/C(C)=C/CC/C(C)=C/CC/C(C)=C/CC/C(C)=C/CC/C(C)=C/CC/C(C)=C/CC1=C(C)C(=O)c2ccccc2C1=O` [MQ-8, menaquinone-8] was tested, and the “cryo-EM structure, 2.44 Å” value ([1]; QA site) was “one MQ-8 and one UQ-8 were identified unambiguously at the RC QA and QB sites”.
In the case of `COC1=C(OC)C(=O)C(C/C=C(\C)CC/C=C(\C)CC/C=C(\C)CC/C=C(\C)CC/C=C(\C)CC/C=C(\C)CC/C=C(\C)CCC=C(C)C)=C(C)C1=O` [UQ-8, ubiquinone-8], the “cryo-EM structure, 2.44 Å” value ([1]; QB site) is reported as “one MQ-8 and one UQ-8 were identified unambiguously at the RC QA and QB sites”.
Work on “Halorhodospira halophila iso-3 high-potential iron–sulfur protein (HiPIP) (natural protein)” yielded a percent of LH1–RC particles with bound HiPIP [2] of 66.7%.
